Earlier results, collected in US12553008B2, “Extracting and refining plant cuticular waxes from aqueous dispersion using temperature and pH adjustment” (JENA TRADING APS, priority 2019, dated 2026).
Like-named read-outs stand apart in the source and are kept apart here.

Legend:
[1] = not given; remark: listed apart in the source

Row | Compound | pKa | Solubility of free fatty acids in water ([1]; at 30° C.) [mg/L at 30 °C] | also measured
1 | CCCCCCCCCCCCCCCCCC(=O)O [Stearic (C18 saturated), Stearic] | 4.8-4.9 |  | 
2 | CCCCCCCC/C=C\CCCCCCCC(=O)O [Oleic (C18 mono-unsaturated), oleic acid] |  |  | Solubility of free fatty acids in water ([1]; in words, no temperature printed): Insoluble; Solubility of free fatty acids in water ([1]; in words, no temperature printed, listed as oleic): very low
3 | CCCCCCCCCCCCCCCC(=O)O [Palmitic (C16 saturated), Palmitic] | 4.75 |  | 

Further lines, with some results ahead:

Row | pKa | Solubility of free fatty acids in water ([1]; at 30° C.) [mg/L at 30 °C] | Compound | also measured
4 | 5.3 | 63 | CCCCCCCCCCCC(=O)O [Lauric (C12 saturated), Lauric] | Solubility of free fatty acids in water ([1]; at 45° C.): 72 mg/L at 45 °C
5 | 4.9 | 24 | CCCCCCCCCCCCCC(=O)O [Myristic (C14 saturated), Myristic] | Solubility of free fatty acids in water ([1]; at 60° C.): 33 mg/L at 60 °C
